Holding throughout (type): biochemical
Details in all cases: 10 μM ATP, 60 min, ADP-GLO luminescence
(ADP-Glo turns the ADP formed in a reaction into a luminescent signal.)

In one assay the target is c-MET (Homo sapiens, UniProt P08581). Nature of the assay: Enzymatic assay (ADP-Glo kinase reaction), c-MET. As for the experimental part:
(§1) All the kinase reactions were performed in 5 μL using tyrosine kinase buffer with 0.2 μg/μL poly (Glu4, Tyr1) substrate, 10 μM ATP, serial dilution of the inhibitor, and incubated at room temperature for 60 min. After the indicated incubation times, 5 μL ADP-GLO™ reagent (Promega, Madison, WI) was added to the reactions and the plate was incubated at room temperature for 40 min. […] All 384-well assay plates were read using a GLOMAX™ Discover Microplate Luminometer from Promega (Madison, WI). To plot, analyze the data and calculate all kinase reaction biochemical values, both Microsoft Excel and Prism from GraphPad 7 Software (La Jolla, CA) were used.

The target in a further assay is T1, AXL (Homo sapiens, UniProt P30530).
T1 sequence (P30530 26-894): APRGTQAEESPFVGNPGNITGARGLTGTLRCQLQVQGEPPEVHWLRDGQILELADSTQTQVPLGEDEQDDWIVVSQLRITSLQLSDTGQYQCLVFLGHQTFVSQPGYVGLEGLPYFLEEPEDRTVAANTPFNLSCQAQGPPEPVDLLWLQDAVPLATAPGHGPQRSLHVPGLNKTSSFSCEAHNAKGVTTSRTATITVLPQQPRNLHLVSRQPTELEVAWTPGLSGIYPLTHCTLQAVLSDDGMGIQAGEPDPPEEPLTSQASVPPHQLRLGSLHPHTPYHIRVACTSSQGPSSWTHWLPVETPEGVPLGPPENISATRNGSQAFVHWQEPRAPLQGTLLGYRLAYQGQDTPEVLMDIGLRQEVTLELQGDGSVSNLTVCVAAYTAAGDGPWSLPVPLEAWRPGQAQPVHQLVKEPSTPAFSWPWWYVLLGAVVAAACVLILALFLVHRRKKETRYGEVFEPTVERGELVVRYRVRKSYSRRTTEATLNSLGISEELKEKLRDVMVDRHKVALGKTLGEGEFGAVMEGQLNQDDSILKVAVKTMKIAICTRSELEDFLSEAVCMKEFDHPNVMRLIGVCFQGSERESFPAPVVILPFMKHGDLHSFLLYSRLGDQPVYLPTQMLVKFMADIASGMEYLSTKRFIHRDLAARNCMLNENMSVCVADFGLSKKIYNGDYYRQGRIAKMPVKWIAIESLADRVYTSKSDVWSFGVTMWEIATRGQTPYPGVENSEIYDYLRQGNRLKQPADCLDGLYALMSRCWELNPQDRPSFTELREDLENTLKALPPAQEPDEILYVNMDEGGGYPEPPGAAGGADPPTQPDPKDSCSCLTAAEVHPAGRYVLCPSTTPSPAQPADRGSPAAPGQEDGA
Nature of the assay: Enzymatic assay (ADP-Glo kinase reaction), AXL. As for the experimental part:
as §1

The next assay deals with T2, MER (Homo sapiens, UniProt Q12866).
T2 sequence (Q12866 21-999): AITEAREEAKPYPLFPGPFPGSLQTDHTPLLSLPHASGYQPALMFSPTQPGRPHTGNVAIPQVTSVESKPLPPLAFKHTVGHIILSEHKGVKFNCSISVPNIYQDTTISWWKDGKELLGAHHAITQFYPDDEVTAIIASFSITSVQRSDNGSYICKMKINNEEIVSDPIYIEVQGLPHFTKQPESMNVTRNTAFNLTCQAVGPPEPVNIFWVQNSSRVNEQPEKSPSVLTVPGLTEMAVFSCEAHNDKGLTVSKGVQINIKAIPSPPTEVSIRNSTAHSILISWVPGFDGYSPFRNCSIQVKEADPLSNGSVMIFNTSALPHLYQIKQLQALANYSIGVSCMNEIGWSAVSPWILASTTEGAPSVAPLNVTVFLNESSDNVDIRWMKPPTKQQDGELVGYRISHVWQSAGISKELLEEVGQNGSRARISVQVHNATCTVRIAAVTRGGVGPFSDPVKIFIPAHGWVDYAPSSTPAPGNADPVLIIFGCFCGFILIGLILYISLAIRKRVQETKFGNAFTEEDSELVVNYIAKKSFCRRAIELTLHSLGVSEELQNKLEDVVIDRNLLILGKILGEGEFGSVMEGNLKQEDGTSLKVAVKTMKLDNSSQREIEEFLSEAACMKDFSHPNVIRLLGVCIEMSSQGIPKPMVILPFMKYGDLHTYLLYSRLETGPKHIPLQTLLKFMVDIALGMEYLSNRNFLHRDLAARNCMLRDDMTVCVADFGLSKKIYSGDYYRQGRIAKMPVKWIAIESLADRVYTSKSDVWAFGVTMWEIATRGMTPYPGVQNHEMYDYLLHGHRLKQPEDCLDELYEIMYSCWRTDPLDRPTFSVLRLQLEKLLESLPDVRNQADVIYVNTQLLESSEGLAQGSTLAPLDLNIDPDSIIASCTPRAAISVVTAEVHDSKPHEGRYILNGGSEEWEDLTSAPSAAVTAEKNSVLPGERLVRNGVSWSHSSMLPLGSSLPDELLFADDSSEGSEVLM
The assay can be described thus: Enzymatic assay (ADP-Glo kinase reaction), MER. The method, then:
(§2) All the kinase reactions were performed in 5 μL using tyrosine kinase buffer with 0.2 μg/μL poly (Glu4, Tyr1) substrate, 10 μM ATP, serial dilution of the inhibitor, and incubated at room temperature for 60 min. After the indicated incubation times, 5 μL ADP-GLO™ reagent (Promega, Madison, WI) was added to the reactions and the plate was incubated at room temperature for 40 min. Then, 10 μL of kinase detection reagent was added and after an incubation time of 40 min, luminescence was recorded and IC50 values were determined (Table 1). All 384-well assay plates were read using a GLOMAX™ Discover Microplate Luminometer from Promega (Madison, WI). To plot, analyze the data and calculate all kinase reaction biochemical values, both Microsoft Excel and Prism from GraphPad 7 Software (La Jolla, CA) were used.
as §2, with “3).” for “1).”

A value given as a limit tells only on which side of the number the result lay.

Chain of c-MET (P08581 25-1390): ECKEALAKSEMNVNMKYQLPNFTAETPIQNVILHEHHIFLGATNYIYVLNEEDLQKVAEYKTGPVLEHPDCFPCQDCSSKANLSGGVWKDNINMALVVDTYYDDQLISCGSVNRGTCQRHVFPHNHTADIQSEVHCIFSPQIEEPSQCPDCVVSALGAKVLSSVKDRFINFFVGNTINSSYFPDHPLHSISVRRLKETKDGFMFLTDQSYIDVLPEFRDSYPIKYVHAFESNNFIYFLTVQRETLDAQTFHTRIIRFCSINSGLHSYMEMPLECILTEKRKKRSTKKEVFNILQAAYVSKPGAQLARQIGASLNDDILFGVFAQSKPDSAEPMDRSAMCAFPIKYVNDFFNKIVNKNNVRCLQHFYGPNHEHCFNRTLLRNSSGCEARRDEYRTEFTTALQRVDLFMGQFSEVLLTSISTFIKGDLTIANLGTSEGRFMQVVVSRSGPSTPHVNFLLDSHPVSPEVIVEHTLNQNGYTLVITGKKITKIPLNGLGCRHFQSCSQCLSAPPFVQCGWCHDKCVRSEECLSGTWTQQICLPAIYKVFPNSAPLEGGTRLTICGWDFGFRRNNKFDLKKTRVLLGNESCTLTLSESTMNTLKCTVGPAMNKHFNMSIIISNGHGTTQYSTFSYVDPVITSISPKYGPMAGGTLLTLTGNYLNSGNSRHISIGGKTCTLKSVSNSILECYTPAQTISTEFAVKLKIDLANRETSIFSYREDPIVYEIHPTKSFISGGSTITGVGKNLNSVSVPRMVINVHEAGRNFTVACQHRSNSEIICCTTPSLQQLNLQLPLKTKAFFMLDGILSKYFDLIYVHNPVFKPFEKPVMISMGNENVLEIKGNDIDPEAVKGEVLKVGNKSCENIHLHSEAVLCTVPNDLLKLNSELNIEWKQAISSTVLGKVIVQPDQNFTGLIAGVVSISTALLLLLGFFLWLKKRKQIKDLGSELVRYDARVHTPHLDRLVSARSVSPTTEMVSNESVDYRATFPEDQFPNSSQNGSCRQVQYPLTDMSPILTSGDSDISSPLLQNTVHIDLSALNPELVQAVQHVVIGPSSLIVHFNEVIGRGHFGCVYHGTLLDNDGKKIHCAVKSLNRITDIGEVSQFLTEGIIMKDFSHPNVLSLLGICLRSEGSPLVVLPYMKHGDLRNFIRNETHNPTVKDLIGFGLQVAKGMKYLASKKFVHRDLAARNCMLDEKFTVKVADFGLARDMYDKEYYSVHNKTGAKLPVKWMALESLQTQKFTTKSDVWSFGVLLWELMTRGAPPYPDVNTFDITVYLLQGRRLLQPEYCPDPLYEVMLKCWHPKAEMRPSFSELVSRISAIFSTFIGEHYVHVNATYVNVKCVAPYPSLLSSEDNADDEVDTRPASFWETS

As usually defined, the IC50 is the midpoint of a concentration-inhibition curve. With `CC(C)n1cc(C(=O)Nc2ccc(Oc3ccnc(N)c3C#CCC3CCNCC3)c(F)c2)c(=O)n(-c2ccc(F)cc2)c1=O` [Example 27, N-(4-(2-amino-3-(3-(piperidin-4-yl)prop-1-ynyl)pyridin-4-yloxy)-3-fluorophenyl)-3-(4-fluorophenyl)-1-isopropyl-2,4-dioxo-1,2,3,4-tetrahydropyrimidine-5-carboxamide], the IC50 against c-MET, against AXL and at MER was under 10 nM throughout.

Take `COCCN1CCC(CC#Cc2c(Oc3ccc(NC(=O)c4cn(C(C)C)c(=O)n(-c5ccc(F)cc5)c4=O)cc3F)ccnc2N)CC1` [Example 28, N-(4-(2-amino-3-(3-(1-(2-methoxyethyl)piperidin-4-yl)prop-1-ynyl)pyridin-4-yloxy)-3-fluorophenyl)-3-(4-fluorophenyl)-1-isopropyl-2,4-dioxo-1,2,3,4-tetrahydropyrimidine-5-carboxamide]: the IC50 on c-MET, against AXL and at MER was under 10 nM throughout.

For the molecule `CC(C)N1CCC(CC#Cc2c(Oc3ccc(NC(=O)c4cn(C(C)C)c(=O)n(-c5ccc(F)cc5)c4=O)cc3F)ccnc2N)CC1` [Example 29, N-(4-(2-amino-3-(3-(1-isopropylpiperidin-4-yl)prop-1-ynyl)pyridin-4-yloxy)-3-fluorophenyl)-3-(4-fluorophenyl)-1-isopropyl-2,4-dioxo-1,2,3,4-tetrahydropyrimidine-5-carboxamide], the IC50 against c-MET, on AXL and at MER was under 10 nM each time.

With `CN(C)C(=O)Cn1cc(C(=O)Nc2ccc(Oc3ccnc(N)c3C#CC(C)(C)N3CCOCC3)c(F)c2)c(=O)n(-c2ccc(F)cc2)c1=O` [Example 33, N-(4-((2-amino-3-(3-methyl-3-morpholinobut-1-yn-1-yl)pyridin-4-yl)oxy)-3-fluorophenyl)-1-(2-(dimethylamino)-2-oxoethyl)-3-(4-fluorophenyl)-2,4-dioxo-1,2,3,4-tetrahydropyrimidine-5-carboxamide], the IC50 was under 1000 nM against c-MET, under 10000 nM against AXL and under 100 nM at MER.

Regarding `CN(C)C(=O)Cn1cc(C(=O)Nc2ccc(Oc3ccnc(N)c3C#CCN3CCOCC3)c(F)c2)c(=O)n(-c2ccc(F)cc2)c1=O` [Example 34, N-(4-((2-amino-3-(3-morpholinoprop-1-yn-1-yl)pyridin-4-yl)oxy)-3-fluorophenyl)-1-(2-(dimethylamino)-2-oxoethyl)-3-(4-fluorophenyl)-2,4-dioxo-1,2,3,4-tetrahydropyrimidine-5-carboxamide], the IC50 was under 10000 nM on c-MET, under 1000 nM against AXL and under 100 nM against MER.

In the case of `CN(C)C(=O)Cn1cc(C(=O)Nc2ccc(Oc3ccnc(N)c3C#CC(C)(C)N3CCNCC3)c(F)c2)c(=O)n(-c2ccc(F)cc2)c1=O` [Example 35, N-(4-((2-amino-3-(3-methyl-3-(piperazin-1-yl)but-1-yn-1-yl)pyridin-4-yl)oxy)-3-fluorophenyl)-1-(2-(dimethylamino)-2-oxoethyl)-3-(4-fluorophenyl)-2,4-dioxo-1,2,3,4-tetrahydropyrimidine-5-carboxamide], the IC50 is under 10000 nM against c-MET, under 10000 nM on AXL and under 100 nM against MER.

On to `CN1CCN(C(C)(C)C#Cc2c(Oc3ccc(NC(=O)c4cn(CC(=O)N(C)C)c(=O)n(-c5ccc(F)cc5)c4=O)cc3F)ccnc2N)CC1` [Example 36, N-(4-((2-amino-3-(3-methyl-3-(4-methylpiperazin-1-yl)but-1-yn-1-yl)pyridin-4-yl)oxy)-3-fluorophenyl)-1-(2-(dimethylamino)-2-oxoethyl)-3-(4-fluorophenyl)-2,4-dioxo-1,2,3,4-tetrahydropyrimidine-5-carboxamide], for which the figures for the IC50 against c-MET, on AXL and against MER were under 10000 nM, under 10000 nM and under 1000 nM, respectively.

Regarding `CN1CCC(CC#Cc2c(Oc3ccc(NC(=O)c4cn(CC(=O)N(C)C)c(=O)n(-c5ccc(F)cc5)c4=O)cc3F)ccnc2N)CC1` [Example 37, N-(4-((2-amino-3-(3-(1-methylpiperidin-4-yl)prop-1-yn-1-yl)pyridin-4-yl)oxy)-3-fluorophenyl)-1-(2-(dimethylamino)-2-oxoethyl)-3-(4-fluorophenyl)-2,4-dioxo-1,2,3,4-tetrahydropyrimidine-5-carboxamide], the IC50 against c-MET was under 10000 nM; at AXL, under 100 nM; at MER it was under 10 nM.

Turning to `CN(C)C(=O)Cn1cc(C(=O)Nc2ccc(Oc3ccnc(N)c3C#CCC3CCNCC3)c(F)c2)c(=O)n(-c2ccc(F)cc2)c1=O` [Example 38, N-(4-((2-amino-3-(3-(piperidin-4-yl)prop-1-yn-1-yl)pyridin-4-yl)oxy)-3-fluorophenyl)-1-(2-(dimethylamino)-2-oxoethyl)-3-(4-fluorophenyl)-2,4-dioxo-1,2,3,4-tetrahydropyrimidine-5-carboxamide], the results for the IC50 against c-MET, on AXL and on MER were under 10 nM, under 100 nM and under 10 nM, respectively.

On to `Cc1nc(Cn2cc(C(=O)Nc3ccc(Oc4ccnc(N)c4C#CC(C)(C)N4CCOCC4)c(F)c3)c(=O)n(-c3ccc(F)cc3)c2=O)cs1` [Example 39, N-(4-((2-amino-3-(3-methyl-3-morpholinobut-1-yn-1-yl)pyridin-4-yl)oxy)-3-fluorophenyl)-3-(4-fluorophenyl)-1-((2-methylthiazol-4-yl)methyl)-2,4-dioxo-1,2,3,4-tetrahydropyrimidine-5-carboxamide], for which the half-maximal inhibitory concentration (IC50) against c-MET, at AXL and on MER was under 100 nM throughout.

Values taken from patent publication US20250171426A1, “PYRIMIDINEDIONE-BASED COMPOUNDS AS AXL, C-MET, AND MER INHIBITORS AND METHODS OF USE THEREOF” (CMG Pharmaceutical Co., Ltd., priority 2022, published 2025).
